{"source": "paper PMC8037182", "about": "“Solvothermal Synthesis of Multiple Dihydropyrimidinones at a Time as Inhibitors of Eg5” (Molecules, 2021);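 on OD490 Mean: blank control wells received 0.025% DMSO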;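 on OD490 Well 1: blank control wells received 0.025% DMSO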;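 on OD490 Well 2: blank control wells received 0.025% DMSO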;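 on OD490 Well 3: blank control wells received 0.025% DMSO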", "key": {"Hela cell line": {"tested_on": "Hela cell line", "test": "Cytotoxicity MTS assay, Hela cell line;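 on OD490 value, Mean: blank control wells received 0.025% DMSO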;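 on OD490 value, Well 1: blank control wells received 0.025% DMSO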;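 on OD490 value, Well 2: blank control wells received 0.025% DMSO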;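 on OD490 value, Well 3: blank control wells received 0.025% DMSO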", "assay_type": "cell-based", "conditions": "for OD490 value, Mean / OD490 value, Well 1 / OD490 value, Well 2 / OD490 value, Well 3: Hela cell line, MTS", "in_short": "(§1)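 MTS antiproliferation; 1000 cells/well, 24 h pre-incubation; compound 0.5–100 µM final, 24 h exposure; vehicle 0.025% DMSO; monastrol positive control; MTS 2 h, 37 °C, 5% CO2; A490; IC50 by non-linear regression of % viability vs concentration; three independent duplicate runs.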"}, "T24 cell line": {"tested_on": "T24 cell line", "test": "Cytotoxicity MTS assay, T24 cell line", "assay_type": "cell-based", "conditions": "for OD490 Mean / OD490 Well 1 / OD490 Well 2 / OD490 Well 3: T24 cell line, first assay", "in_short": "as §1"}}, "data": [{"smiles": "CCOC(=O)c1[nH]c(C2NC(=O)NC(C)=C2C(=O)Nc2ccc(Cl)cc2)c(C(=O)OCC)c1C", "note": "(centres unmarked) [D7]", "values": [{"measurement": "OD490 value, Mean", "setting": "Hela cell line; 0.5μM, first assay", "value": 2.5908}, {"measurement": "OD490 value, Well 1", "setting": "Hela cell line; 0.5μM, first assay", "value": 2.5621}, {"measurement": "OD490 value, Well 2", "setting": "Hela cell line; 0.5μM, first assay", "value": 2.6393}, {"measurement": "OD490 value, Well 3", "setting": "Hela cell line; 0.5μM, first assay", "value": 2.5711}, {"measurement": "OD490 value, Mean", "setting": "Hela cell line; 0.5μM, second assay", "value": 2.6768}, {"measurement": "OD490 value, Well 1", "setting": "Hela cell line; 0.5μM, second assay", "value": 2.5588}, {"measurement": "OD490 value, Well 2", "setting": "Hela cell line; 0.5μM, second assay", "value": 2.6974}, {"measurement": "OD490 value, Well 3", "setting": "Hela cell line; 0.5μM, second assay", "value": 2.7741}, {"measurement": "OD490 value, Mean", "setting": "Hela cell line; 0.5μM, third assay", "value": 2.6551}, {"measurement": "OD490 value, Well 1", "setting": "Hela cell line; 0.5μM, third assay", "value": 2.6545}, {"measurement": "OD490 value, Well 2", "setting": "Hela cell line; 0.5μM, third assay", "value": 2.6358}, {"measurement": "OD490 value, Well 3", "setting": "Hela cell line; 0.5μM, third assay", "value": 2.6749}, {"measurement": "OD490 value, Mean", "setting": "Hela cell line; 1μM, first assay", "value": 2.4582}, {"measurement": "OD490 value, Well 1", "setting": "Hela cell line; 1μM, first assay", "value": 2.4152}, {"measurement": "OD490 value, Well 2", "setting": "Hela cell line; 1μM, first assay", "value": 2.4632}, {"measurement": "OD490 value, Well 3", "setting": "Hela cell line; 1μM, first assay", "value": 2.4962}, {"measurement": "OD490 value, Mean", "setting": "Hela cell line; 1μM, second assay", "value": 2.6058}, {"measurement": "OD490 value, Well 1", "setting": "Hela cell line; 1μM, second assay", "value": 2.8624}, {"measurement": "OD490 value, Well 2", "setting": "Hela cell line; 1μM, second assay", "value": 2.6541}, {"measurement": "OD490 value, Well 3", "setting": "Hela cell line; 1μM, second assay", "value": 2.3010}, {"measurement": "OD490 value, Mean", "setting": "Hela cell line; 1μM, third assay", "value": 2.6692}, {"measurement": "OD490 value, Well 1", "setting": "Hela cell line; 1μM, third assay", "value": 2.6686}, {"measurement": "OD490 value, Well 2", "setting": "Hela cell line; 1μM, third assay", "value": 2.5980}, {"measurement": "OD490 value, Well 3", "setting": "Hela cell line; 1μM, third assay", "value": 2.7410}, {"measurement": "OD490 value, Mean", "setting": "Hela cell line; 10μM, first assay", "value": 2.5790}, {"measurement": "OD490 value, Well 1", "setting": "Hela cell line; 10μM, first assay", "value": 2.7201}, {"measurement": "OD490 value, Well 2", "setting": "Hela cell line; 10μM, first assay", "value": 2.4926}, {"measurement": "OD490 value, Well 3", "setting": "Hela cell line; 10μM, first assay", "value": 2.5244}, {"measurement": "OD490 value, Mean", "setting": "Hela cell line; 10μM, second assay", "value": 2.5914}, {"measurement": "OD490 value, Well 1", "setting": "Hela cell line; 10μM, second assay", "value": 2.3698}, {"measurement": "OD490 value, Well 2", "setting": "Hela cell line; 10μM, second assay", "value": 2.8523}, {"measurement": "OD490 value, Well 3", "setting": "Hela cell line; 10μM, second assay", "value": 2.5521}, {"measurement": "OD490 value, Mean", "setting": "Hela cell line; 10μM, third assay", "value": 2.6067}, {"measurement": "OD490 value, Well 1", "setting": "Hela cell line; 10μM, third assay", "value": 2.5657}, {"measurement": "OD490 value, Well 2", "setting": "Hela cell line; 10μM, third assay", "value": 2.6845}, {"measurement": "OD490 value, Well 3", "setting": "Hela cell line; 10μM, third assay", "value": 2.5698}, {"measurement": "OD490 value, Mean", "setting": "Hela cell line; 25μM, first assay", "value": 2.6458}, {"measurement": "OD490 value, Well 1", "setting": "Hela cell line; 25μM, first assay", "value": 2.7056}, {"measurement": "OD490 value, Well 2", "setting": "Hela cell line; 25μM, first assay", "value": 2.6228}, {"measurement": "OD490 value, Well 3", "setting": "Hela cell line; 25μM, first assay", "value": 2.6091}, {"measurement": "OD490 value, Mean", "setting": "Hela cell line; 25μM, second assay", "value": 2.6325}, {"measurement": "OD490 value, Well 1", "setting": "Hela cell line; 25μM, second assay", "value": 2.5901}, {"measurement": "OD490 value, Well 2", "setting": "Hela cell line; 25μM, second assay", "value": 2.6301}, {"measurement": "OD490 value, Well 3", "setting": "Hela cell line; 25μM, second assay", "value": 2.6774}, {"measurement": "OD490 value, Mean", "setting": "Hela cell line; 25μM, third assay", "value": 2.6849}, {"measurement": "OD490 value, Well 1", "setting": "Hela cell line; 25μM, third assay", "value": 2.6987}, {"measurement": "OD490 value, Well 2", "setting": "Hela cell line; 25μM, third assay", "value": 2.6457}, {"measurement": "OD490 value, Well 3", "setting": "Hela cell line; 25μM, third assay", "value": 2.7102}, {"measurement": "OD490 value, Mean", "setting": "Hela cell line; 50μM, first assay", "value": 2.4563}, {"measurement": "OD490 value, Well 1", "setting": "Hela cell line; 50μM, first assay", "value": 2.5239}, {"measurement": "OD490 value, Well 2", "setting": "Hela cell line; 50μM, first assay", "value": 2.4847}, {"measurement": "OD490 value, Well 3", "setting": "Hela cell line; 50μM, first assay", "value": 2.3602}, {"measurement": "OD490 value, Mean", "setting": "Hela cell line; 50μM, second assay", "value": 2.2166}, {"measurement": "OD490 value, Well 1", "setting": "Hela cell line; 50μM, second assay", "value": 2.3365}, {"measurement": "OD490 value, Well 2", "setting": "Hela cell line; 50μM, second assay", "value": 2.0124}, {"measurement": "OD490 value, Well 3", "setting": "Hela cell line; 50μM, second assay", "value": 2.3010}, {"measurement": "OD490 value, Mean", "setting": "Hela cell line; 50μM, third assay", "value": 2.4441}, {"measurement": "OD490 value, Well 1", "setting": "Hela cell line; 50μM, third assay", "value": 2.4565}, {"measurement": "OD490 value, Well 2", "setting": "Hela cell line; 50μM, third assay", "value": 2.6544}, {"measurement": "OD490 value, Well 3", "setting": "Hela cell line; 50μM, third assay", "value": 2.2214}, {"measurement": "OD490 value, Mean", "setting": "Hela cell line; 100μM, first assay", "value": 1.9660}, {"measurement": "OD490 value, Well 1", "setting": "Hela cell line; 100μM, first assay", "value": 1.8876}, {"measurement": "OD490 value, Well 2", "setting": "Hela cell line; 100μM, first assay", "value": 1.9083}, {"measurement": "OD490 value, Well 3", "setting": "Hela cell line; 100μM, first assay", "value": 2.1021}, {"measurement": "OD490 value, Mean", "setting": "Hela cell line; 100μM, second assay", "value": 1.8447}, {"measurement": "OD490 value, Well 1", "setting": "Hela cell line; 100μM, second assay", "value": 1.6754}, {"measurement": "OD490 value, Well 2", "setting": "Hela cell line; 100μM, second assay", "value": 1.8601}, {"measurement": "OD490 value, Well 3", "setting": "Hela cell line; 100μM, second assay", "value": 1.9987}, {"measurement": "OD490 value, Mean", "setting": "Hela cell line; 100μM, third assay", "value": 1.9092}, {"measurement": "OD490 value, Well 1", "setting": "Hela cell line; 100μM, third assay", "value": 1.9698}, {"measurement": "OD490 value, Well 2", "setting": "Hela cell line; 100μM, third assay", "value": 1.9033}, {"measurement": "OD490 value, Well 3", "setting": "Hela cell line; 100μM, third assay", "value": 1.8546}, {"measurement": "IC50", "setting": "Hela cell line; MTS assay, 24 h exposure", "value": "> 150", "unit": "µM"}, {"measurement": "IC50", "setting": "T24 cell line; MTS assay, 24 h exposure", "value": "> 150", "unit": "µM"}, {"measurement": "OD490 Mean", "setting": "T24 cell line; 0.5μM", "value": 1.2446}, {"measurement": "OD490 Well 1", "setting": "T24 cell line; 0.5μM", "value": 1.2491}, {"measurement": "OD490 Well 2", "setting": "T24 cell line; 0.5μM", "value": 1.2874}, {"measurement": "OD490 Well 3", "setting": "T24 cell line; 0.5μM", "value": 1.1973}, {"measurement": "OD490 Mean", "setting": "T24 cell line; 1μM", "value": 1.5295}, {"measurement": "OD490 Well 1", "setting": "T24 cell line; 1μM", "value": 1.4588}, {"measurement": "OD490 Well 2", "setting": "T24 cell line; 1μM", "value": 1.7975}, {"measurement": "OD490 Well 3", "setting": "T24 cell line; 1μM", "value": 1.3323}, {"measurement": "OD490 Mean", "setting": "T24 cell line; 10μM", "value": 1.4981}, {"measurement": "OD490 Well 1", "setting": "T24 cell line; 10μM", "value": 1.4996}, {"measurement": "OD490 Well 2", "setting": "T24 cell line; 10μM", "value": 1.6104}, {"measurement": "OD490 Well 3", "setting": "T24 cell line; 10μM", "value": 1.3842}, {"measurement": "OD490 Mean", "setting": "T24 cell line; 25μM", "value": 1.5238}, {"measurement": "OD490 Well 1", "setting": "T24 cell line; 25μM", "value": 1.6186}, {"measurement": "OD490 Well 2", "setting": "T24 cell line; 25μM", "value": 1.5573}, {"measurement": "OD490 Well 3", "setting": "T24 cell line; 25μM", "value": 1.3956}, {"measurement": "OD490 Mean", "setting": "T24 cell line; 50μM", "value": 1.3341}, {"measurement": "OD490 Well 1", "setting": "T24 cell line; 50μM", "value": 1.3613}, {"measurement": "OD490 Well 2", "setting": "T24 cell line; 50μM", "value": 1.2657}, {"measurement": "OD490 Well 3", "setting": "T24 cell line; 50μM", "value": 1.3754}, {"measurement": "OD490 Mean", "setting": "T24 cell line; 100μM", "value": 1.4451}, {"measurement": "OD490 Well 1", "setting": "T24 cell line; 100μM", "value": 1.4704}, {"measurement": "OD490 Well 2", "setting": "T24 cell line; 100μM", "value": 1.5023}, {"measurement": "OD490 Well 3", "setting": "T24 cell line; 100μM", "value": 1.3625}]}]}
